Assays:
[1] = system: EGF, TGF-β, VEGF gene expression; experiment: Real-time PCR of cell proliferation genes and histology of infected wounds, TP4; format: in vivo, mice
Description: Adult mice were infected with MRSA, and treated with TP4 or antibiotics, while controls were infected but untreated. On the indicated days, total RNA was isolated from the wound and reverse transcribed for use in real-time qPCR analysis of EGF (FIG. 10A), TGF-β (FIG. 10B), and VEGF (FIG. 10C) gene expression. (r=3; n=6.) Values with different letters show significant differences (P<0.05), as determined by ANOVA.
Tracings were taken immediately after injury. For uncontaminated wounds, wound size was determined every second day. For contaminated wounds, mice were euthanized at days 3, 5, or 19, and tracings of the wound edges were made. Wound areas were determined using the Macintosh Adobe Photoshop program, Histogram Analysis. The percentage of wound contraction was calculated as follows: % Wound contraction=(A0−At)/A0×100, where A0 is the original wound area, and at is the area of wound at the time of biopsy, accordingly. Cell proliferation gene expression was performed by real-time PCR, using the methods described above.
(§1) Skin tissues were removed and fixed as previously described. In brief, the cryosections were fixed with 4% formaldehyde, and the tissue samples were stained with VEGF. IHC was analyzed by three independent investigators. Images were taken using a BX-51 microscope (Olympus, Japan). ELISA was performed as previously described.

TNF, IL-6, IL-1 = experiment: ELISA of serum cytokines in MRSA wound-infected mice, TP4; format: in vivo
Protocol: A skin region of about 1 square centimeter was removed from the abdomen of […] mice, and the wound was infected with […] of broth mix containing 10^6 cfu of MRSA alone, or together with methicillin, vancomycin, or TP4. At different days post-infection: TNF (FIG. 9A), IL-6 (FIG. 9B), and IL-1 (FIG. 9C) were detected in serum by ELISA. (r=3; n=6.) Values with different letters show significant differences (P<0.05), as determined by ANOVA.
as §1

[2] = system: Hs-68 human foreskin fibroblast cell line; format: cell-based
Protocol: An MRSA strain commonly associated with human wound infections was selected to generate a polymicrobial solution. The MRSA strain is a clinical isolate from stool obtained from Taipei City Hospital (Heping Fuyou branch). The strain was identified by routine laboratory methods and stored in 20% (vol/vol) glycerol at −80° C. Tryptic Soy Broth (TSB) was used as the culture medium. HaCaT human keratinocyte cell line and Hs-68 human foreskin fibroblast cell line were grown in DMEM containing 10% (v/v) FBS, 0.37% (w/v) NaHCO3, penicillin (100 unit/ml), streptomycin (100 μg/ml), 0.1 mM NEAA, and 1 mM sodium pyruvate at 37° C. in a humidified incubator under 5% CO2 and 95% air. The cells were harvested at ca. 90% confluence (ca. 10^6 cells/10-cm dish). Balb/c female mice were used for the experiments. All mice were housed in cages under specific pathogen-free conditions, and given water and standard laboratory chow ad libitum during the experiments. All animal handing procedures were in accordance with National Taiwan Ocean University (NTOU) guidelines. All procedures were approved by the Animal Care and Use Committee of NTOU.
Cells were cultured at a density of 5×10^4 cells per well in flat-bottomed 96-well plates. […] Cell proliferation was measured by neutral red, LDH, and MTT assay, according to the manufacturer's instructions. […]

[3] = system: Collagen I, collagen III, KGF gene expression in Hs-68 cells; experiment: Real-time PCR of collagen I, collagen III, KGF in Hs-68 cells; format: cell-based, human; conditions: TP4 6.25 μg/ml, 48 h, vs controls
Protocol: In FIG. 5A-5C, Hs-68 cells were treated with different doses of TP4 for 48 h, and cell viability was measured by neutral red, LDH, and MTT assays. (r=3; n=6.) In FIG. 5D-5F, the experimental Hs-68 cells were treated with TP4 ([…]), while control cells were untreated. After 48 h, total RNA was isolated and reverse transcribed for use in real-time qPCR analysis. Six replicate wells were analyzed per assay. Results represent the mean±SEM from three independent experiments. (Student's t-test: *, P<0.05; **, P<0.01; n.s.: not significant).
Total RNA was isolated from HaCaT and Hs-68 cells, and purified using a Qiagen RNeasy kit. Reverse transcription into cDNA was performed with an iScript cDNA Synthesis Kit (BIO-RAD, USA) according to the manufacturer's recommendations. Real-time polymerase chain reaction (PCR) was performed to analyze gene expression, using […] of cDNA, 2× iQSYBR® Green Supermix (BIO-RAD, USA), and 500 nM of forward and reverse primers against selected genes or GAPDH (reference gene), according to the instructions of the manufacturer. Quantitative PCR was performed under the following conditions: 40 cycles of 1 min at 95° C., 30 s at 55° C., and 1 min at 72° C. The threshold cycle number (Ct) was calculated with BIO-RAD software. Relative transcript quantities were calculated using the ΔCt method with GAPDH as the internal reference gene. ΔCt is the difference in the threshold cycles of messenger (m)RNA for selected genes relative to those of GAPDH mRNA. Real-time PCR was performed in triplicate for each experimental group.

[4] = serum, 3 days after treatment, vs positive controls

Tilapia piscidin 4 (FIHHIIGGLFSAGKAIHRLIRRRRR; listed as Oreochromis niloticus) [TP4]
epidermal regeneration, histological examination of biopsies ([1]; TP4-treated wounds): complete and architecturally normal epidermal regeneration | gene expression of EGF ([1]; wound tissue, 3 days, vs control and vancomycin-treated mice): enhanced gene expression | gene expression of TGF ([1]; wound tissue, 7 days, vs control and vancomycin-treated mice): enhanced gene expression | gene expression of VEGF ([1]; wound tissue, 14 days, vs control and vancomycin-treated mice): enhanced gene expression | IL-1 (TNF, IL-6, IL-1; TP4-treated wounds vs control wounds): statistically significant enhancement | induction of IL-6 (TNF, IL-6, IL-1; [4]): decreased induction | induction of TNF (TNF, IL-6, IL-1; [4]): decreased induction | cytotoxic effects [2]: did not exhibit cytotoxic effects | cell proliferation ([2]; Hs-68 cells, low doses, 48 h): significantly increased | Collagen I gene expression [3]: enhanced | Collagen III gene expression [3]: enhanced | KGF gene expression [3]: enhanced

Source: patent US9925235B2, “Tilapia piscidins for use in enhancement of wound healing” (Academia Sinica, priority 2015, dated 2018)
